Structures can show the parent of a compound that is named as a salt.
Tests used:
HCT-116 = test: Cytotoxicity assay (SRB), HCT-116; assay type: cell-based; details: Homo sapiens, HCT-116, 72 h, HCT116 cells, SRB, three days; read-out: In Vitro Cellular Activity IC50 HCT116
Method in brief: (§1)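 BT474 (12000 cells/well) was treated for 6 days, whereas HCT-116 (4000), LoVo (6000) and MCF-7 (6000) were treated for 3 days, all in RPMI 1640 containing 5% FBS. Surviving-cell percentage came from SRB dye binding measured at 540 nm.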

LoVo = test: Cytotoxicity assay (SRB), LoVo; assay type: cell-based; details: Homo sapiens, LoVo, 72 h, LoVo cells, SRB, three days; read-out: In Vitro Cellular Activity IC50 LOVO
Method in brief: as §1

BT474 = test: Cytotoxicity assay (SRB), BT474; assay type: cell-based; details: Homo sapiens, BT-474, 144 h, BT474 cells, SRB, 6 days; read-out: In Vitro Cellular Activity IC50 BT474
Method in brief: as §1

MCF-7 = test: Cytotoxicity assay (SRB), MCF-7; assay type: cell-based; details: Homo sapiens, MCF7, 72 h, MCF-7 cells, SRB, three days; read-out: In Vitro Cellular Activity IC50 MCF-7
Method in brief: as §1

| SMILES | melting point | IC50 (HCT-116) [µM] | IC50 (LoVo) [µM] | IC50 (BT474) [µM] | IC50 (MCF-7) [µM] |
| --- | --- | --- | --- | --- | --- |
| O=C1NC(=O)c2ccc(-c3ccsc3)cc2/C1=C/Nc1ccc(CN2CCCCC2)cc1 (hydrate or solvate) [Example 104, (4Z)-4-({[4-(Piperidin-1-ylmethyl)phenyl]amino}methylene)-6-thien-3-ylisoquinoline-1,3(2H,4H)-dione] | 166 to 167 °C |  |  |  |  |
| COc1ccc(-c2ccc3c(c2)/C(=C/Nc2ccc(N4CCN(C)CC4)cc2)C(=O)NC3=O)cc1 (hydrate or solvate) [Example 114, (4Z)-6-(4-methoxyphenyl)-4-({[4-(4-methylpiperazin-1-yl)phenyl]amino}methylene)-isoquinoline-1,3(2H,4H)-dione] | 224 to 225 °C |  |  |  |  |
| CN1CCN(c2ccc(N/C=C3\C(=O)NC(=O)c4ccc(-c5ccc(C=O)cc5)cc43)cc2)CC1 (hydrate or solvate) [Example 115, 4-[(4Z)-4-({[4-(4-Methylpiperazin-1-yl)phenyl]amino}methylene)-1,3-dioxo-1,2,3,4-tetra-hydroisoquinolin-6-yl]benzaldehyde] | 152 to 153 °C |  |  |  |  |
| COc1ccc(-c2ccc3c(c2)/C(=C/Nc2ccc(CN4CCCCC4)cc2)C(=O)NC3=O)cc1 (hydrate or solvate) [Example 116, (4Z)-6-(4-Methoxyphenyl)-4-({[4-(piperidin-1-ylmethyl)phenyl]amino}methylene)-isoquinoline-1,3(2H,4H)-dione] | 168 to 169 °C |  |  |  |  |
| COc1cccc(-c2ccc3c(c2)/C(=C/Nc2ccc(CN4CCCCC4)cc2)C(=O)NC3=O)c1 (hydrate or solvate) [Example 117, (4Z)-6-(3-Methoxyphenyl)-4-({[4-(piperidin-1-ylmethyl)phenyl]amino}methylene)-isoquinoline-1,3(2H,4H)-dione] | 169 to 170 °C |  |  |  |  |
| CN1CCN(c2ccc(N/C=C3\C(=O)NC(=O)c4ccc(-c5ccc(C=O)o5)cc43)cc2)CC1 (hydrate or solvate) [Example 124, 5-[(4Z)-4-({[4-(4-Methylpiperazin-1-yl)phenyl]amino}methylene)-1,3-dioxo-1,2,3,4-tetrahydroisoquinolin-6-yl]-2-furaldehyde] | 218 to 220 °C |  |  |  |  |
| O=C1NCc2ccccc2/C1=C/Nc1ccc(-c2c[nH]cn2)cc1 [Example 3, (4Z)-4-({[4-(1H-Imidazol-4-yl)phenyl]amino}methylene)-1,4-dihydro-3(2H)-isoquinolinone] | 151 to 152 °C (dec.) |  |  |  |  |
| O=C1NC(=O)c2ccccc2/C1=C/Nc1ccc2cn[nH]c2c1 [Example 7, (4Z)-4-[(1H-Indazol-6-ylamino)methylene]isoquinoline-1,3(2H,4H)-dione] | > 300 °C |  |  |  |  |
| O=C1NC(=O)c2ccc(Br)cc2/C1=C/NCc1cccnc1 [Example 30, (4Z)-6-Bromo-4-{[(pyridin-3-ylmethyl)amino]methylene}isoquinoline-1,3(2H,4H)-dione] | 299 to 300 °C |  |  |  |  |
| O=C1NC(=O)c2ccc([N+](=O)[O-])cc2/C1=C/Nc1ccc(CN2CCCCC2)cc1 [Example 42, (4Z)-6-Nitro-4-{[(4-piperidin-1-ylmethyl)phenyl]amino}methyleneisoquinoline-1,3(2H,4H)-dione] | 225 to 235 °C (dec.) |  |  |  |  |
| O=C1NC(=O)c2ccc(Br)cc2/C1=C/NCCc1c[nH]c2ccccc12 [Example 43, (4Z)-6-Bromo-4-({[2-(1H-indol-3-yl)ethyl]amino}methylene)isoquinoline-1,3(2H,4H)-dione] | 278 to 280 °C | 26 | > 50 | 41 | > 50 |
| CN1CCN(c2ccc(N/C=C3\C(=O)NC(=O)c4ccc(C(=O)O)cc43)cc2)CC1 [Example 51, (4Z)-4-({[4-(4-Methylpiperazin-1-yl)phenyl]amino}methylene)-1,3-dioxo-1,2,3,4-tetrahydroisoquinoline-6-carboxylic acid] | 278 to 280 °C |  |  |  |  |
| O=C1NC(=O)c2ccc(Br)cc2/C1=C/NCc1ccc(Cl)cc1 [Example 53, (4Z)-6-Bromo-4-{[(4-chlorobenzyl)amino)methylene}isoquinoline-1,3(2H,4H)-dione] | 234 to 235 °C | 32 | > 50 | 37 | > 50 |
| COc1ccc(CN/C=C2\C(=O)NC(=O)c3ccc(Br)cc32)cc1OC(C)=O [Example 57, 5-({[(Z)-(6-Bromo-1,3-dioxo-2,3-dihydroisoquinolin-4(1H)-ylidene)methyl]amino}methyl)-2-methoxyphenyl acetate] | 226 to 227 °C | 9.6 | 5.2 | 3.7 | > 50 |
| O=C1NC(=O)c2ccc(-c3ccc(Oc4ccccc4)cc3)cc2/C1=C/Nc1ccc(CN2CCCCC2)cc1 [Example 101] | 132 to 133 °C | 1.2 | 4.3 | 2.9 | 3.2 |
| O=C1NC(=O)c2ccc(Br)cc2/C1=C/NCc1ccc2c(c1)OCO2 [Example 109, (4Z)-4-{[(1,3-Benzodioxol-5-ylmethyl)amino]methylene}-6-bromoisoquinoline-1,3(2H,4H)-dione] | 227 to 228 °C | 16.8 | > 50 | 34.8 | > 50 |
| N#Cc1ccc2c(c1)/C(=C/Nc1ccc(CN3CCCCC3)cc1)C(=O)NC2=O [Example 110, (4Z)-1,3-Dioxo-4-({[4-(piperidin-1-ylmethyl)phenyl]amino}methylene)1,2,3,4-tetrahydroisoquinoline-6-carbonitrile] | 254 to 256 °C (dec.) | 1.6 | 2.5 | 3.5 | 5.8 |
| COC[C@H]1CCCN1c1ccc2c(c1)/C(=C/Nc1ccc(CN3CCCCC3)cc1)C(=O)NC2=O [Example 121, (4Z)-6-[(2R)-2-(Methoxymethyl)pyrrolidin-1-yl]-4-({[4-(piperidin-1-ylmethyl)phenyl]amino}methylene)isoquinoline-1,3(2H,4H)-dione] | 135 to 136 °C | 5.5 | 3.8 | 7.7 | 4.6 |

Second part, led by results:

| melting point | SMILES | IC50 (HCT-116) [µM] | IC50 (LoVo) [µM] | IC50 (BT474) [µM] | IC50 (MCF-7) [µM] |
| --- | --- | --- | --- | --- | --- |
| 227 to 228 °C | CCCOc1ccc(CN/C=C2\C(=O)NC(=O)c3ccc(-c4ccc(F)c(F)c4)cc32)cc1O (as salt: sodium) [Example 194, (4Z)-6-(3,4-Difluorophenyl)-4-{[(3-hydroxy-4-propoxybenzyl)amino]methylene}-isoquinoline-1,3(2H,4H)-dione] |  |  |  |  |
| 193 to 194 °C | C[C@@H]1CN(c2ccc(N/C=C3\C(=O)NC(=O)c4ccc(-c5ccc(F)cc5)cc43)cc2)C[C@H](C)N1 (as salt: sodium) [Example 205, (4Z)-4-({[4-(3,5-Dimethylpiperazin-1-yl)phenyl]amino}methylene)-6-(4-fluorophenyl)-isoquinoline-1,3(2H,4H)-dione] |  |  |  |  |
| 164 to 165 °C | C[C@@H]1CN(c2ccc(N/C=C3\C(=O)NC(=O)c4ccc(-c5ccsc5)cc43)cc2)C[C@H](C)N1 (as salt: sodium) [Example 206, (4Z)-4-({[4-(3,5-Dimethylpiperazin-1-yl)phenyl]amino}methylene)-6-thien-3-ylisoquinoline-1,3(2H,4H)-dione] |  |  |  |  |
| 199 to 200 °C | C[C@@H]1CN(c2ccc(N/C=C3\C(=O)NC(=O)c4ccc(-c5ccoc5)cc43)cc2)C[C@H](C)N1 (as salt: sodium) [Example 207, (4Z)-4-({[4-(3,5-Dimethylpiperazin-1-yl)phenyl]amino}methylene)-6-(3-furyl)iso-quinoline-1,3(2H,4H)-dione] |  |  |  |  |
| 239 to 240 °C | COc1ccc(CN/C=C2\C(=O)NC(=O)c3ccc(-c4ccc(F)cc4)cc32)cc1O (as salt: sodium) [Example 208, (4Z)-6-(4-Fluorophenyl)-4-{[(3-hydroxy-4-methoxybenzyl)amino]methylene}iso-quinoline-1,3(2H,4H)-dione] |  |  |  |  |
| 204 to 205 °C | COc1ccc(CN/C=C2\C(=O)NC(=O)c3ccc(-c4cccc(F)c4)cc32)cc1O (as salt: sodium) [Example 209, (4Z)-6-(3-Fluorophenyl)-4-{[(3-hydroxy-4-methoxybenzyl)amino]methylene}iso-quinoline-1,3(2H,4H)-dione] |  |  |  |  |
| 190 to 191 °C | CN1CCN(c2ccc(N/C=C3\C(=O)NC(=O)c4ccc(-c5ccoc5)cc43)cc2)CC1 (as salt: sodium) [Example 236, (4Z)-6-(3-Furyl)-4-({[4-(4-methylpiperazin-1-yl)phenyl]amino}methylene)isoquinoline-1,3(2H,4H)-dione] |  |  |  |  |
| 228 to 229 °C | CN1CCN(c2ccc(N/C=C3\C(=O)NC(=O)c4ccc(-c5ccc(F)cc5)cc43)cc2)CC1 (as salt: sodium) [Example 263, (4Z)-6-(4-Fluorophenyl)-4-({[4-(4-methylpiperazin-1-yl)phenyl]amino}methylene)-isoquinoline-1,3(2H,4H)-dione] |  |  |  |  |
| 297 to 298 °C | COc1ccc(CN/C=C2\C(=O)NC(=O)c3cc(Br)ccc32)cc1O [Example 135, (4Z)-7-Bromo-4-{[(3-hydroxy-4-methoxybenzyl)amino]methylene}isoquinoline-1,3(2H,4H)-dione] | 31 | > 50 | > 50 | > 50 |
